Consider four compounds from publication PMC11571215, “Optimization of Antiproliferative Properties of Triimine Copper(II) Complexes” (Journal of Medicinal Chemistry, 2024).

In series [1] the test system is HCT116-DoxR cells. Kind of series: Apoptosis by Annexin V-FITC/PI flow cytometry. The series is classed as cell-based, human. To be noted: 48 h, complexes at IC50, Dox 6 μM, Cis 5 μM. The protocol:
Initially, a quantitative assay with double staining using annexin V-FITC (FITC, fluorescein isothiocyanate) and propidium iodide (PI) through flow cytometry was performed.[24] Annexin V-FITC, a probe with an affinity for the ionic phospholipid phosphatidylserine (PS), predominantly located on the inner side of the plasma membrane in healthy cells, undergoes translocation to the outer plasma membrane during the early stages of apoptosis.[61],[67] In contrast, PI is a DNA intercalating agent that marks cells with compromised plasma membrane (usually in the late stages of apoptosis or in necrosis), emitting red fluorescence upon interaction with nucleic acids.[54],[68] This assay allows for distinguishing cells in four different conditions: viable cells (FITC–, PI−), early apoptosis (FITC+, PI−), late apoptosis (FITC+, PI+), and necrosis (FITC–, PI+).
The Annexin V-FITC Apoptosis Detection Kit (catalog no. V13245, Invitrogen, USA) was used in this study for the induction of apoptosis analysis. HCT116-DoxR cells were seeded in 6-well plates at a cell density of 1 × 10^5 cells/mL and incubated for 24 h, under the same conditions mentioned before. […] After this incubation period, the cells were washed with PBS 1× and trypsinized with TrypLE Express (Invitrogen). The supernatant was discarded, and the pellet was washed with PBS 1×. The cells were resuspended in 1× Annexin V-FITC binding buffer. Subsequently, the samples were incubated at room temperature (RT) with Alexa Fluor 488 annexin V and 100 μg/mL of propidium iodide (PI) in the dark for 15 min. After incubation, 1× Annexin V-FITC binding buffer was added and the samples were analyzed using an Attune Acoustic Focusing Flow Cytometer (Life Technologies, Carlsbad, USA). Results were processed with Attune Cytometric software.

Series [2] has as its system HCT116 cells (colorectal carcinoma). Kind of series: MTS cell viability assay, HCT116 2D. Format: cell-based, human. To be noted: for IC50: 48 h of exposure, MTS, relative IC50, mean + SEM; for SI HCT116: ratio IC50 fibroblasts / IC50 HCT116. The protocol: The antiproliferative effect of the Cu(II) complexes in tumor and healthy cell lines was assessed through the MTS assay, a colorimetric method that is widely used to evaluate cellular viability, specifically mitochondrial viability.[53],[54] Cellular viability was determined after 48 h exposure to a concentration range (0.1–50 μM) of Cu(II) complexes in three tumor cell lines. […] Additionally, the viability of healthy primary dermal fibroblasts was performed as a comparison of the complexes’ antiproliferative effects in normal cells.
Cellular viability assays were performed using HCT116, HCT116-DoxR, and A2780 cancer cell lines as well as normal human primary fibroblasts. Cells were seeded at a density of 0.75 × 10^5 cells/mL in 96-well plates and incubated at 37 °C with 5% (v/v) CO2 for 24 h. After this incubation period, the copper complexes were accurately weighed and immediately dissolved in 100% (v/v) dimethyl sulfoxide (DMSO). Subsequently, the complexes were diluted to the final concentration using a cell culture medium. The culture medium in each well was replaced with fresh medium containing varying concentrations of the complexes (ranging from 0.01 to 50 μM). Negative controls contained culture medium with 0.1% (v/v) DMSO, and positive controls contained 0.4 μM Dox.
After an additional 48 h of incubation under the same conditions, cellular viability was assessed using the CellTiter 96 Aqueous One Solution Cell Proliferation Assay kit (Promega, Madison, USA). Metabolically active cells contain mitochondrial dehydrogenases that can reduce 3-(4,5-dimethylthiazol-2-yl)-5-(3-carboxymethoxyphenyl)-2-(4-sulfophenyl)-2H-tetrazolium, the inner salt (MTS) to formazan. The absorbance of formazan, measured at 490 nm in a microplate reader (Tecan Infinite M200, Tecan, Männedorf, Switzerland), is directly proportional to the number of viable cells.[104]
The cell viability versus concentration graphics were analyzed using Prism 8 software (GraphPad) to determine the half-maximal inhibitory concentration (IC50) of each complex for the respective cell line. Additionally, the selective index (SI) for each complex was calculated by dividing the IC50 of human fibroblasts by the IC50 values of the tested cancer cell lines.
For orientation: Tetrazolium dyes change colour on reduction, which living cells bring about.

Series [3] deals with HCT116-DoxR cells. Briefly: Mitochondrial membrane potential (JC-1, flow cytometry). The series is classed as cell-based, human. The following applies: 48 h; complexes at IC50, Dox 6 μM, Cis 5 μM; normalized to DMSO. (In flow cytometry, cells or beads pass a laser one at a time.)
Source text: Changes in membrane potential can be measured and represent an essential parameter, indicating the functional state of the mitochondria. For this analysis, the lipophilic cationic probe 5,5′,6,6′-tetrachloro-1,1′,3,3′-tetraethylbenzimidazolylcarbocyanine iodide (JC-1) was used, allowing the evaluation of depolarization or hyperpolarization of the mitochondrial membrane.[72] In healthy cells, JC-1 accumulates inside the electronegative mitochondria as aggregates (red fluorescence) when the membrane potential is positively charged (hyperpolarized).[71] However, when depolarization of the mitochondrial membrane potential occurs, the JC-1 probe will accumulate outside of the mitochondria in its monomeric form (green fluorescence), therefore causing a decrease in the ratio of JC-1 aggregate/monomer fluorescence intensity.[61],[71] […] Subsequently, the cells were stained with the JC-1 probe and subjected to flow cytometry analysis to confirm potential alterations in the mitochondrial membrane potential induced by the complexes. […]
The mitochondrial membrane potential (ΔΨM) was evaluated by using the JC-1 Mitochondrial Membrane Potential Assay Kit (Abnova Corporation, Walnut, California, USA). […] The samples were then analyzed in the Attune Acoustic Focusing Flow Cytometer (Life Technologies, Carlsbad, CA, USA) and results were processed with Attune Cytometric software.
A further series concerns pUC18 plasmid DNA (pDNA). Kind of series: Plasmid DNA interaction and cleavage (gel electrophoresis). To be noted: 24 h; for pDNA cleavage / isoform change: 100 ng pUC18, 5–100 μM complex, 37 °C; for pDNA cleavage in presence of NaN3 scavenger: 50 μM complex + 50 μM NaN3, 37 °C; for pDNA cleavage in presence of H2O2: 50 μM complex + 100 μM H2O2, 37 °C.
Series [4] has as its system chicken embryo chorioallantoic membrane. Briefly: Ex-ovo CAM assay: in vivo toxicity and angiogenic potential. The following applies: IC50 concentrations; for angiogenic potential (tertiary veins): 24 h, normalized to DMSO; for in vivo toxicity (embryo death): chicken embryo. From the text:
The ex-ovo Chorioallantoic Membrane (CAM) assay has become a preclinical model of choice for assessing the cytotoxicity of Cu(II) complexes and in vivo angiogenesis.[38] The CAM is an extraembryonic membrane formed by mesodermal layers, highly vascularized despite being compromised, making it ideal for studying angiogenesis and antiangiogenesis in response to biomolecules and drugs.[97] […] In these assays, highly vascularized regions surrounded by O-rings on the chorioallantoic membrane of chicken embryos were studied. […] Eight embryos were used as biological replicates. Images were taken immediately after exposure to the complexes and control (0 h) and 24 h later. The values were normalized to the number of tertiary veins after exposure to the DMSO control and are represented in Figures 19 and S25.
To assess the angiogenic potential of the copper complexes, an ex-ovo CAM (chick chorioallantoic membrane) in vivo model using chicken eggs was performed. Fertilized eggs were opened, and the embryos and blood vessels were stabilized for 24 h in an incubator at 37 °C in perforated individual weighing boxes. After incubation, 4 silicone O-rings were placed on areas with a high number of blood vessels. […] The area limited by each O-ring was photographed immediately after the addition of the complexes and after 24 and 48 h of incubation at 37 °C. The images were captured with a digital USB microscope camera (Opti-Tekscope OT-V1). Image analysis was performed using ImageJ software.

Procedure for pUC18 plasmid DNA (pDNA): The procedure involved exposing 100 ng of pDNA (pUC18) to increasing concentrations of complexes Cu1a and Cu1b (5, 25, 50, 75, and 100 μM), which were incubated at 37 °C for 24 h.
The sodium azide (NaN3) scavenger, capable of quenching singlet oxygen (^−1O2), was used for this purpose.[93] Additionally, hydrogen peroxide (H2O2) was employed as a well-known positive control for DNA cleavage through oxidative mechanisms in the presence of ROS.[71]
Experiments were conducted with 100 ng of pUC18 DNA incubated with increasing concentrations of Cu1a and Cu1b complexes (5, 25, 50, 75, and 100 μM) or in their absence (pUC18 only or with 0.1% DMSO (v/v), both negative controls). For this assay, positive control was included, containing pUC18 DNA (100 ng) previously incubated with the HindIII enzyme to linearize the plasmid in the last 2 h of incubation. […] Electrophoresis was performed in 0.8% (w/v) agarose gel (NZYtech) in TAE 1× buffer at a constant voltage of 70 V for 80 min. The electrophoresis gel image was acquired using the Gel Doc EZ Imager (Bio-Rad), and band quantification was performed using ImageJ software.
The pDNA (100 ng) was exposed to reactive oxygen species (ROS) scavenging agents, namely, sodium azide (NaN3) at 50 μM and hydrogen peroxide (H2O2) at 100 μM. […] Controls were also included where 100 ng of pUC18 was exposed to 0.1% (v/v) DMSO, and the activity of the HindIII restriction enzyme (linearized plasmid control) for 24 h. All the samples were adjusted to a final volume of 20 μL and incubated for 24 hs at 37 °C. […] The electrophoresis gel image was acquired in Gel Doc EZ Imager (Bio-Rad) and band quantification was performed using ImageJ software.

Consider `COc1cccc2c1C(=O)c1c(O)c3c(c(O)c1C2=O)C[C@@](O)(C(=O)CO)C[C@@H]3O[C@H]1C[C@H](N)[C@H](O)[C@H](C)O1` [Doxorubicin], for which, in the series with HCT116-DoxR cells [1], the early apoptosis is on record as 16.6% ± 5.5, the late apoptosis is 13.9% ± 1.9, the necrosis is 9.8% ± 4.0 and the viable cells was 59.8% ± 3.8. Besides, in the series with HCT116-DoxR cells [1] (listed as Dox), the late apoptosis is 13.9%, the necrosis stood at 9.8% and the viable cells result is on record as “about 59.8%”. The IC50 in series [2] (Homo sapiens, HCT-116) is 500 ± 100 nM.

In the case of `N.N.[Cl][Pt][Cl]` [Cisplatin], in the series with HCT116-DoxR cells [1], the early apoptosis is given as 40.1%, the late apoptosis is on record as 25.8% and the necrosis is 0.9% ± 1.1. In the series on HCT116-DoxR cells [1] (listed as cisplatin), the early apoptosis is given as 40.1% ± 11.8 and the late apoptosis is 25.8% ± 7.7. Moreover, the IC50 in series [2] stood at 15600 ± 5300 nM.

Consider `[Cl][Cu-3]12([Cl])[n+]3ccccc3-c3cc(-c4ccc5ccccc5c4)cc([n+]31)-c1cccc[n+]12` [Cu1b], for which the “JC-1 red/green fluorescence ratio (aggregate/monomer)” value in the series on HCT116-DoxR cells [3] is 0.88. For the same compound, in the series on pUC18 plasmid DNA (pDNA), the “pDNA cleavage / isoform change” value was “a decrease in supercoiled forms and an increase in the intensity of the circular isoform at concentrations of 25 and 50 μM”; the “pDNA cleavage in presence of NaN3 scavenger” value was “an increase in the supercoiled isoform and a decrease in the nicked isoform”; the “pDNA cleavage in presence of H2O2” value is listed as “a complete disappearance of pDNA isoforms is observed”. For the same compound, in the series on HCT116-DoxR cells [1], the necrosis was 0.7% ± 0.6 and the viable cells is 59.3% ± 7.8. In addition, in series [4], the “angiogenic potential (tertiary veins)” value was “did not show significant pro- or antiangiogenic properties” and the “in vivo toxicity (embryo death)” value was “do not show in vivo toxicity in a chicken embryo”. Further, in series [2], the IC50 stood at 210 ± 50 nM and the “SI HCT116” value was 63.3.

For `[Cl][Cu-3]12([Cl])[n+]3ccccc3-c3cc(-c4cccc5ccccc45)cc([n+]31)-c1cccc[n+]12` [Cu1a], in the series on HCT116-DoxR cells [3], the “JC-1 red/green fluorescence ratio (aggregate/monomer)” value is on record as “approximately 0.79”. Also, in the series with pUC18 plasmid DNA (pDNA), the “pDNA cleavage / isoform change” value is “an increase in the circular form (N) was observed compared to negative control with the simultaneous decrease of the supercoiled isoform”; the “pDNA cleavage in presence of NaN3 scavenger” value is “an increase in the supercoiled isoform and a reduction in the nicked isoform”; the “pDNA cleavage in presence of H2O2” value is reported as “pDNA cleavage increased compared to H2O2 alone”. The viable cells with HCT116-DoxR cells [1] was 23.1% ± 4.5. Also, in series [4], the “angiogenic potential (tertiary veins)” value is listed as “did not show significant pro- or antiangiogenic properties” and the “in vivo toxicity (embryo death)” value is listed as “do not show in vivo toxicity in a chicken embryo”. In series [2], the IC50 turned out to be 280 ± 30 nM and the “SI HCT116” value stood at 33.1.

The term IC50 denotes the concentration that gives 50% inhibition.
